Where two headings read alike, the source gives them in different places.
Tests used:
Zymoseptoria tritici = experiment: Leaf Blotch of Wheat (SEPTTR) fungicidal activity; type: in vivo; details: wheat leaf blotch; for pest or weed control at 100 ppm: High Volume application; for pest or weed control at 121.5 g/ha: Low Volume application, 121.5 g/H
Method: Example A: Evaluation of Fungicidal Activity: Leaf Blotch of Wheat (Zymoseptoria tritici; Bayer Code […]) Technical grades of materials were dissolved in acetone, which were then mixed with nine volumes of H2O containing 110 ppm Triton X-100. The fungicide solutions were applied onto wheat seedlings using an automated booth sprayer to run-off. All sprayed plants were allowed to air dry prior to further handling. All fungicides were evaluated using the aforementioned method for their activity vs. all target diseases, unless stated otherwise. Wheat leaf blotch and brown rust activity were also evaluated using track spray applications, in which case the fungicides were formulated as EC formulations, containing 0.1% Trycol 5941 in the spray solutions. Wheat plants (variety Yuma) were grown from seed in a greenhouse in 50% mineral soil/50% soil-less Metro mix until the first leaf was fully emerged, with 7-10 seedlings per pot. These plants were inoculated with an aqueous spore suspension of Zymoseptoria tritici either prior to or after fungicide treatments. After inoculation the plants were kept in 100% relative humidity (one day in a dark dew chamber followed by two to three days in a lighted dew chamber at 20° C.) to permit spores to germinate and infect the leaf. The plants were then transferred to a greenhouse set at 20° C. for disease to develop. When disease symptoms were fully expressed on the 1st leaves of untreated plants, infection levels were assessed on a scale of 0 to 100 percent disease severity. Percent disease control was calculated using the ratio of disease severity on treated plants relative to untreated plants.

Puccinia triticina = experiment: Wheat Brown Rust (PUCCRT) fungicidal activity; type: in vivo; details: for pest or weed control at 100 ppm: High Volume application; for pest or weed control at 121.5 g/ha: Low Volume application, 121.5 g/H
Method: Technical grades of materials were dissolved in acetone, which were then mixed with nine volumes of H2O containing 110 ppm Triton X-100. The fungicide solutions were applied onto wheat seedlings using an automated booth sprayer to run-off. All sprayed plants were allowed to air dry prior to further handling. All fungicides were evaluated using the aforementioned method for their activity vs. all target diseases, unless stated otherwise. Wheat leaf blotch and brown rust activity were also evaluated using track spray applications, in which case the fungicides were formulated as EC formulations, containing 0.1% Trycol 5941 in the spray solutions. Wheat plants (variety Yuma) were grown from seed in a greenhouse in 50% mineral soil/50% soil-less Metro mix until the first leaf was fully emerged, with 7-10 seedlings per pot. These plants were inoculated with an aqueous spore suspension of Zymoseptoria tritici either prior to or after fungicide treatments. After inoculation the plants were kept in 100% relative humidity (one day in a dark dew chamber followed by two to three days in a lighted dew chamber at 20° C.) to permit spores to germinate and infect the leaf. The plants were then transferred to a greenhouse set at 20° C. for disease to develop. When disease symptoms were fully expressed on the 1st leaves of untreated plants, infection levels were assessed on a scale of 0 to 100 percent disease severity. Percent disease control was calculated using the ratio of disease severity on treated plants relative to untreated plants. Example B: Evaluation of Fungicidal Activity: Wheat Brown Rust (Puccinia triticina; Bayer Code PUCCRT) Wheat plants (variety Yuma) were grown from seed in a greenhouse in 50% mineral soil/50% soil-less Metro mix until the first leaf was fully emerged, with 7-10 seedlings per pot. These plants were inoculated with an aqueous spore suspension of Puccinia triticina either prior to or after fungicide treatments. After inoculation the plants were kept in a dark dew room at 22° C. with 100% relative humidity overnight to permit spores to germinate and infect the leaf. The plants were then transferred to a greenhouse set at 24° C. for disease to develop. Fungicide formulation, application and disease assessment followed the procedures as described in the Example A.

[1] = 24 h, 1 day protectant, read-out: SEPTTR disease control, 1DP (1 Day Protectant)
[2] = 72 h, 3 day curative, read-out: SEPTTR disease control, 3DC (3 Day Curative)
[3] = 24 h, 1 day protectant, read-out: PUCCRT disease control, 1DP (1 Day Protectant)
[4] = 72 h, 3 day curative, read-out: PUCCRT disease control, 3DC (3 Day Curative)

SMILES | pest or weed control at 100 ppm (Zymoseptoria tritici; [1]) [%] | pest or weed control at 100 ppm (Zymoseptoria tritici; [2]) [%] | pest or weed control at 100 ppm (Puccinia triticina; [3]) [%] | pest or weed control at 100 ppm (Puccinia triticina; [4]) [%] | pest or weed control at 121.5 g/ha (Zymoseptoria tritici; [1]) [%] | pest or weed control at 121.5 g/ha (Puccinia triticina; [3]) [%] | pest or weed control at 121.5 g/ha (Puccinia triticina; [4]) [%] | pest or weed control at 121.5 g/ha (Zymoseptoria tritici; [2]) [%]
COc1ccnc(C(=O)N[C@H]2CCCC[C@H](OC)[C@@H](OCC(C)C)[C@H](C)OC2=O)c1OCOC(C)=O [Compound 12] | > 80 | > 80 | > 80 | > 80 | – | – | – | –
COc1ccnc(C(=O)N[C@H]2CCCC[C@H](OCC(C)C)[C@@H](OCC(C)C)[C@H](C)OC2=O)c1O [Compound 89] | < 80 | < 80 | < 80 | – | – | – | – | –
COc1ccnc(C(=O)N[C@H]2CCCC[C@H](CC3CCCC3)[C@@H](Oc3ccccc3)[C@H](C)OC2=O)c1O [Compound 121] | < 80 | > 80 | < 80 | – | – | – | – | –
CCCOC(=O)O[C@H]1CCCC[C@H](NC(=O)c2nccc(OC)c2O)C(=O)O[C@@H](C)[C@@H]1OCC(C)C [Compound 111] | < 80 | > 80 | < 80 | < 80 | – | – | – | –
COc1ccnc(C(=O)N[C@H]2COCC[C@H](Cc3ccc(F)cc3)[C@@H](Oc3ccccc3)[C@H](C)OC2=O)c1O [Compound 132] | > 80 | – | > 80 | > 80 | – | – | – | –
CC(=O)OCOc1cccnc1C(=O)N[C@H]1CCCC[C@H](CC2CCCC2)[C@@H](Oc2ccccc2)[C@H](C)OC1=O [Compound 49] | < 80 | < 80 | > 80 | – | < 80 | > 80 | < 80 | –
CCCO[C@H]1COCC[C@H](NC(=O)c2nccc(OC)c2OCOC(C)=O)C(=O)O[C@@H](C)[C@@H]1Oc1ccccc1 [Compound 41] | – | – | – | – | > 80 | > 80 | > 80 | > 80
CCCO[C@@H]1[C@@H](CC2CCCC2)CCCC[C@H](NC(=O)c2nccc(OC)c2O)C(=O)O[C@H]1C [Compound 124] | < 80 | < 80 | < 80 | < 80 | – | – | – | –
COc1ccnc(C(=O)N[C@H]2COCC[C@H](Cc3ccc(F)cc3)[C@@H](OCC3CC3)[C@H](C)OC2=O)c1O [Compound 133] | < 80 | < 80 | > 80 | > 80 | – | – | – | –
COc1ccnc(C(=O)N[C@H]2CCCC[C@H](Cc3ccccc3)[C@@H](OCC(C)C)[C@H](C)OC2=O)c1O [Compound 102] | > 80 | – | > 80 | < 80 | – | – | – | –
COc1ccnc(C(=O)N[C@H]2COCC[C@H](OCc3ccccc3)[C@@H](OCc3ccccc3)[C@H](C)OC2=O)c1O [Compound 81] | > 80 | – | > 80 | > 80 | – | – | – | –
CCCO[C@H]1[C@H](C)OC(=O)[C@@H](NC(=O)c2nccc(OC)c2O)CCCC[C@@H]1Oc1ccccc1 [Compound 97] | > 80 | < 80 | > 80 | > 80 | – | – | – | –
COc1ccnc(C(=O)N[C@H]2CCCC[C@H](Oc3ccccc3)[C@@H](OC3CCCC3)[C@H](C)OC2=O)c1O [Compound 109] | > 80 | < 80 | > 80 | < 80 | – | – | – | –
COc1ccnc(C(=O)N[C@H]2COCC[C@H](OCc3ccccc3)[C@@H](OCc3ccccc3)[C@H](C)OC2=O)c1OCOC(C)=O [Compound 1] | > 80 | – | > 80 | > 80 | > 80 | > 80 | – | < 80
COc1ccc(C[C@H]2CCOC[C@H](NC(=O)c3nccc(OC)c3OCOC(=O)C(C)C)C(=O)O[C@@H](C)[C@@H]2Oc2ccccc2)cc1 [Compound 67, ((4-methoxy-2-(((3S,8S,9R,10S)-8-(4-methoxybenzyl)-10-methyl-2-oxo-9-phenoxy-1,5-dioxecan-3-yl)carbamoyl)pyridin-3-yl)oxy)methyl isobutyrate] | – | – | – | – | > 80 | > 80 | < 80 | < 80
COc1ccnc(C(=O)N[C@H]2COCC[C@H](Cc3ccc(F)cc3)[C@@H](OCC3CC3)[C@H](C)OC2=O)c1OC(C)=O [Compound 77] | – | – | – | – | > 80 | > 80 | > 80 | < 80
COc1ccnc(C(=O)N[C@H]2COCC[C@H](Cc3ccc(F)cc3)[C@@H](OC(=O)C(C)C)[C@H](C)OC2=O)c1O [Compound 134] | > 80 | > 80 | > 80 | < 80 | – | – | – | –
CCOCC(=O)OCOc1c(OC)ccnc1C(=O)N[C@H]1CCCC[C@H](CC2CCCC2)[C@@H](OC(=O)C(C)C)[C@H](C)OC1=O [Compound 55] | – | – | – | – | < 80 | > 80 | < 80 | < 80
COc1ccnc(C(=O)N[C@H]2CCCC[C@H](OC)[C@@H](Oc3ccccc3)[C@H](C)OC2=O)c1OCOC(C)=O [Compound 11] | > 80 | > 80 | > 80 | > 80 | > 80 | > 80 | > 80 | > 80
COc1ccnc(C(=O)N[C@H]2CCCC[C@H](Cc3ccccc3)[C@@H](Oc3ccccc3)[C@H](C)OC2=O)c1OCOC(C)=O [Compound 62] | – | – | – | – | > 80 | > 80 | < 80 | > 80
CCCCO[C@H]1CCOC[C@H](NC(=O)c2nccc(OC)c2O)C(=O)O[C@@H](C)[C@@H]1OCC(C)C [Compound 87] | > 80 | < 80 | > 80 | > 80 | – | – | – | –
COc1ccnc(C(=O)N[C@H]2CCCC[C@@H]3OC(C)(C)O[C@H]3[C@H](C)OC2=O)c1OCOC(C)=O [Compound 33] | – | – | – | – | < 80 | > 80 | > 80 | > 80
COc1ccnc(C(=O)N[C@H]2CCCC[C@H](CC3CCCC3)[C@@H](OC(=O)C(C)C)[C@H](C)OC2=O)c1O [Compound 123] | – | < 80 | < 80 | – | – | – | – | –
CC[C@H]1CCOC[C@H](NC(=O)c2nccc(OC)c2OC(C)=O)C(=O)O[C@@H](C)[C@@H]1OC(=O)c1ccccc1 [Compound 80] | – | – | – | – | > 80 | > 80 | > 80 | < 80

— patent US20180002319A1, “MACROCYCLIC PICOLINAMIDE COMPOUNDS WITH FUNGICIDAL ACTIVITY” (DOW AGROSCIENCES LLC, priority 2014, published 2018)
